# Measurements from patent publication US20240174645A1, “COMPOUND, PRODUCTION METHOD THEREFOR, COMPLEX, AND SHORT WAVELENGTH INFRARED FLUORESCENT AGENT” (RIKEN, priority 2021, published 2024).
# Tested on: HeLa cell
# Assay: Cytotoxicity test (MTT, cell viability)
# Format: cell-based
# Conditions: HeLa cells, concentrations of 1 nM to 100 nM, cultured for 6 hours, 24 hours, or 48 hours
# Method: HeLa cell was seeded on a 96-well plate at 6×10^3 per well and was cultured overnight. Aqueous solutions of the compound 4 at concentrations of 0.1 nM, 1 nM, 10 nM and 100 nM were prepared as test agents, and the test agent at each concentration was added to the well, and HeLa cells were further cultured for 6, 24, and 48 hours. After the culturing for each of the above hours, MTT (3-(4,5-di-methylthiazol-2-yl)-2,5-diphenyltetrazolium bromide) reagent was added to the well, and the resultant product was further cultured for 2 hours.
# After the culturing for 2 hours, a solubilizing solution was added to the well, and formazan produced in the living cell was dissolved by pipetting. By sealing the 96-well plate and allowing the resultant product to stand in an incubator overnight at 37° C., formazan was completely solubilized. A plate reader was used to measure 570 nm (formazan dye) and 650 nm (background), and the cell viability of the well to which the test agent of each concentration was added was determined, with the cell viability of a well without the addition of a test agent being 100%.
# Culturing of HeLa cells and determination of cell viability of the well were performed as in the cytotoxicity test for the compound 4, except that a test agent was prepared using the compound 10 instead of the compound 4.
smiles,measurement,value
"CC1(C)C(/C=C/C=C/C=C/C=C/C=C/C=C2/N(CCCCS(=O)(=O)O)c3ccc4ccccc4c3C2(C)C)=[N+](CCCCS(=O)(=O)[O-])c2ccc3ccccc3c21 [compound 10, ICG-C11]",cytotoxicity (cell viability),did not exhibit cytotoxicity
